Test results taken from patent US5648344A, “Methods of treating inflammation using selection binding compounds” (Glycomed Incorporated, priority 1992, dated 1997).

Legend:
ELAM-1 [1] = experiment: Adhesion of ELAM-transfected COS cells to glycolipids adsorbed to PVC microtiter wells or resolved on TLC plates (controlled detachment force); assay type: cell-based, human; settings: ELAM-transfected COS cells as probes
Method: The invention also includes a method of assaying candidate ligands for their ability to adhere to ELAM-1. The method comprises attaching candidate ligands to a substrate surface and then contacting the substrate surface thereon with recombinant cells, that are genetically engineered to express high levels of ELAM-1, for a sufficient time to allow the cells to adhere to the substrate bearing the candidate ligand. […] Candidate ligands which adhere to ELAM-1 are determined via the labels on the cells. Such molecules are isolated, characterized, and their structure specifically identified. Accordingly, the invention also includes glycolipid ligands which can be isolated via such an assay procedure.
COS cells, expressing membrane-bound ELAM-1, were metabolically radiolabeled with ^32 PO4 and used as probes in two assay systems to screen for recognition of glycolipids. In the first, glycolipids were adsorbed to the bottoms of PVC microtiter wells, while in the second they were resolved on TLC plates. […]

ELAM-1 [2] = experiment: Inhibition by carbohydrates of ELAM-transfected COS cell adhesion to glycolipids; assay type: cell-based, human; settings: for inhibition of cell adhesion to glycolipids: at 100 μg/ml, glycolipids eluted from DEAE-Sepharose with 5 mM potassium acetate; for inhibition of adhesion of ELAM-1 transfected COS cells to sialylated glycolipids: glycolipids resolved on TLC plates or adsorbed on PVC microtiter wells, concentration not given
Source text: Radiolabeled COS cells expressing cell surface ELAM-1 were used as probes to screen human leukocyte-derived glycolipids. ELAM-1 transfected COS cells adhered to a subset of sialylated glycolipids which were resolved on TLC plates or adsorbed on PVC microtiter wells. Adhesion to these glycolipids required calcium, but was not inhibited by heparin, chondroitin sulfate, keratin sulfate, or yeast phosphomannan (PPME).
COS cells, expressing membrane-bound ELAM-1, were metabolically radiolabeled with ^32 PO4 and used as probes in two assay systems to screen for recognition of glycolipids. In the first, glycolipids were adsorbed to the bottoms of PVC microtiter wells, while in the second they were resolved on TLC plates. In both assays these glycolipids were probed for their ability to support adhesion of ELAM-transfected COS cells, untransfected COS cells, or COS cells transfected with a plasmid containing an irrelevant cDNA, under conditions of controlled detachment force (see Swank-Hill, P., et al., Anal. Biochem. (1987) 183:27; and Blackburn, C. C., et al., J. Biol. Chem. (1986) 261:2873 each of which is incorporated herein by reference to disclose the details of such assaying methodology).
The material not retained on the column and in fractions eluted by step-wise increases in salt concentration (from 5 mM to 250 mM potassium acetate in methanol) were screened for cell adhesion.

Row | Compound | recognition by / binding to ELAM-1 (ELAM-1 [1]) | inhibition of cell adhesion to glycolipids (ELAM-1 [2]) | inhibition of adhesion of ELAM-1 transfected COS cells to sialylated glycolipids (ELAM-1 [2])
1 | CC(=O)N[C@H]1[C@H]([C@H](O)[C@H](O)CO)O[C@@](O[C@H]2[C@@H](O)[C@@H](CO)O[C@@H](O[C@H]3[C@H](O[C@@H]4O[C@@H](C)[C@@H](O)[C@@H](O)[C@@H]4O)[C@@H](NC(C)=O)C(O)O[C@@H]3CO)[C@@H]2O)(C(=O)O)C[C@@H]1O (stereo partly drawn) [Neu NAc α2-3Gal-β1-4(Fuc α1-3)-GlcNAc] | effectively bind to ELAM-1 | – | –
2 | chondroitin sulfate | – | not inhibited | not inhibited
3 | heparin | – | not inhibited | not inhibited
4 | keratin sulfate | – | not inhibited | not inhibited
5 | yeast phosphomannan | – | not inhibited | not inhibited
